Paper PMC7493219 (Journal of Crohn's & Colitis, 2020)
Where two headings read alike, the source gives them in different places.

Key:
[1] = system: GM-CSF-induced pSTAT5 in THP-1 cells; assay: THP-1 GM-CSF/pSTAT5 assay; type: cell-based; conditions: Homo sapiens, THP-1, read-out: Mean ± SD inhibitory potency [pIC50], GM-CSF/pSTAT5 (converted)
mouse recombinant JAK1 = mouse recombinant JAK1 (Mus musculus, UniProt P52332); assay: LanthaScreen kinase assay; type: biochemical
clinical = conditions: human, in vivo
[2] = Oral pharmacokinetics in mice; conditions: for concentration at 24 h / Cmax: male, Balb/C, mouse, in vivo, 10 mg/kg; for Cmax: po
pSTAT3 in colonic mucosa = assay: Target engagement in the oxazolone colitis model; type: in vivo, Balb/C mice; conditions: oral 30 mg/kg BID; for T cell infiltration into the colonic mucosa: oxazolone-treated mice
[3] = system: IL-6-induced pSTAT3 in THP-1 cells; assay: THP-1 IL-6/pSTAT3 assay; type: cell-based; conditions: Homo sapiens, THP-1, read-out: Mean ± SD inhibitory potency [pIC50], IL-6/pSTAT3 (converted)
[4] = system: moderately to severely active UC; assay: Phase 1b study, efficacy assessments; type: in vivo, human; conditions: after the 28-day treatment, all doses
[5] = system: GM-CSF-induced pSTAT5 in human whole blood; assay: Human whole blood GM-CSF/pSTAT5 assay; type: cell-based; conditions: read-out: Mean ± SD inhibitory potency [pIC50], GM-CSF/pSTAT5 (converted)
[6] = system: IL-6-induced pSTAT1 in Balb/C mouse primary colonic epithelial cells; assay: Mouse colonic epithelial cell IL-6/pSTAT1 assay; type: cell-based; conditions: from Table 1 pIC50
[7] = FTIH SAD/MAD study, safety and tolerability in healthy subjects; type: in vivo, human; conditions: single dose up to 1000 mg, daily doses up to 300 mg for 14 days
[8] = Phase 1b study, safety and tolerability in UC patients; type: in vivo, human; conditions: 20, 80, 270 mg QD 28 days
[9] = system: oxazolone-induced colitis; assay: Oxazolone-induced colitis model; type: in vivo, Balb/C mice; conditions: for effects of oxazolone (DAI and subscores): highest dose tested, 30 mg/kg
[10] = system: IL-13-potentiated IL-8 production in HT-29 cells; assay: HT-29 IL-13/IL-8 assay; type: cell-based; conditions: Homo sapiens, HT-29, read-out: Mean ± SD inhibitory potency [pIC50], IL-13/IL-8 (converted)
[11] = system: splenic NK, T and B cells; assay: Splenocyte studies; type: in vivo, Balb/C mice; conditions: 3 days
[12] = system: IL-13-induced pSTAT6 in HT-29 cells; assay: HT-29 IL-13/pSTAT6 assay; type: cell-based; conditions: Homo sapiens, HT-29, read-out: Mean ± SD inhibitory potency [pIC50], IL-13/pSTAT6 (converted)
human recombinant TYK2 = human recombinant TYK2 (Homo sapiens, UniProt P29597); assay: LanthaScreen kinase assay; type: biochemical
[13] = system: IL-4-induced pSTAT6 in THP-1 cells; assay: THP-1 IL-4/pSTAT6 assay; type: cell-based; conditions: Homo sapiens, THP-1, read-out: Mean ± SD inhibitory potency [pIC50], IL-4/pSTAT6 (converted)

mouse recombinant JAK1, sequence (P52332 whole entry): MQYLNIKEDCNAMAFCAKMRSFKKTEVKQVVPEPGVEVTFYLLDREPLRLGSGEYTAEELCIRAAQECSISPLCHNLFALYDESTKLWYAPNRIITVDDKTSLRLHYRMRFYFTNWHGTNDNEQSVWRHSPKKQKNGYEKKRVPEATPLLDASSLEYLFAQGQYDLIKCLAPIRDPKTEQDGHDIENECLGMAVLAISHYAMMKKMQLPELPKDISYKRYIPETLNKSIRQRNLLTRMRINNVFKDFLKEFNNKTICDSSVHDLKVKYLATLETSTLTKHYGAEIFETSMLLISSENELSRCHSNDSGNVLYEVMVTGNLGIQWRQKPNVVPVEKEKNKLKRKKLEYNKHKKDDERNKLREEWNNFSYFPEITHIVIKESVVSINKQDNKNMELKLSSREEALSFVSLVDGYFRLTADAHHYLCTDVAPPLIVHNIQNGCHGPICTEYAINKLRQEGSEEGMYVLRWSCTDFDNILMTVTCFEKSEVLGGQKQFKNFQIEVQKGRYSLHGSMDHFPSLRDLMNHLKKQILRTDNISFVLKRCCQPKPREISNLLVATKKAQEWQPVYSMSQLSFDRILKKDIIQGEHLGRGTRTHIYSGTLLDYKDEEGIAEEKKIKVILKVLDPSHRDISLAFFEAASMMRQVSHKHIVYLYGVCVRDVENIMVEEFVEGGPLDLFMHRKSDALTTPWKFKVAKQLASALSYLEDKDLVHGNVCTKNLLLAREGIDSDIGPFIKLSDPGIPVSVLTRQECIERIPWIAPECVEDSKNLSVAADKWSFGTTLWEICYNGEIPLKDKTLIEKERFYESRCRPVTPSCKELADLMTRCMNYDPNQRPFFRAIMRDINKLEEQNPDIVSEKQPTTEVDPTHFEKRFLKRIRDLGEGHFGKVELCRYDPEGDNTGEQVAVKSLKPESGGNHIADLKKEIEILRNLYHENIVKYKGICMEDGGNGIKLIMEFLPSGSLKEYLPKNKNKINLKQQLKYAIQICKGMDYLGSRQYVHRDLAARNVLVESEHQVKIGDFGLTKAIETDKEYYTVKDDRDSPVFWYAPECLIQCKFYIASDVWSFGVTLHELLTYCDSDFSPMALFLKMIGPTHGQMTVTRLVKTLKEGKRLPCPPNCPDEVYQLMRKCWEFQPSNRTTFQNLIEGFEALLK
human recombinant TYK2, sequence (P29597 whole entry): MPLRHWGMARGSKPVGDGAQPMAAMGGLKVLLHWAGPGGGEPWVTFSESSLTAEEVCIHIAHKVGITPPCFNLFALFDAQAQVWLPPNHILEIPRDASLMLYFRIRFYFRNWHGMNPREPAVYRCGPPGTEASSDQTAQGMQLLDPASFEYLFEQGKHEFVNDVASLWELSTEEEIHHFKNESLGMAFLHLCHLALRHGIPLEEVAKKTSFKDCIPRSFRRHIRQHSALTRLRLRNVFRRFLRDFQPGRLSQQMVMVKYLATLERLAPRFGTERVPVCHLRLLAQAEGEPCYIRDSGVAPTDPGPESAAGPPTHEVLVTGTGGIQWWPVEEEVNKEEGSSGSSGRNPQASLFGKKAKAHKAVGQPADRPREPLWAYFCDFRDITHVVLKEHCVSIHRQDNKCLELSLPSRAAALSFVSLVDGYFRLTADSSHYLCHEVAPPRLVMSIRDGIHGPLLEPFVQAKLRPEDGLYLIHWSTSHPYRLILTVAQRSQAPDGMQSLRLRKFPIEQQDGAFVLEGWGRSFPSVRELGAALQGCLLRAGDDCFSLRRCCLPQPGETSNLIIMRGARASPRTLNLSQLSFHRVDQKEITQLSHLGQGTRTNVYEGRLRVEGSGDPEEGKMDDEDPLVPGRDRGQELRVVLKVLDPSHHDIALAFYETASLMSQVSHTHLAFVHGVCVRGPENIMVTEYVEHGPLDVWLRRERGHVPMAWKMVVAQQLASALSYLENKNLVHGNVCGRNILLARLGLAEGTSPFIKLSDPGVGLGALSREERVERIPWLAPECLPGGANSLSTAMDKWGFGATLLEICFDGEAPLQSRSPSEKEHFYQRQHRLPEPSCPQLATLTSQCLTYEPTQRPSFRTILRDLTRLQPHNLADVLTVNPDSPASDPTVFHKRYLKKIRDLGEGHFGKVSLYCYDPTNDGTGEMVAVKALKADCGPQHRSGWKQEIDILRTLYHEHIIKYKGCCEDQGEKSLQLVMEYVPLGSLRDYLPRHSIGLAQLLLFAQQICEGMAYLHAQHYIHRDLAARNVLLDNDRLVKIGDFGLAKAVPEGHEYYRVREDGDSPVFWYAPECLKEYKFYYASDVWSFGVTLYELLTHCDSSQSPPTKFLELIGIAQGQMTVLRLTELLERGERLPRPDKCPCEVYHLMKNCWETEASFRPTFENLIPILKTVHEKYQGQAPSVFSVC

Cc1cc(Nc2cc3ncccc3c(N[C@@H]3C[C@H]4CC[C@@H](C3)N4CCC#N)n2)n[nH]1 [TD-1473]
IC50 [1]: 100 nM
Ki (mouse recombinant JAK1): 0.0631 nM
Tmax (clinical): ~1 h
concentration at 24 h [2]: < 0.25 nM
Cmax ([2]; colon, 10 mg/kg oral): 3690 ng/g
Cmax ([2]; plasma, 10 mg/kg oral): 1.4 ng/mL
T cell infiltration into the colonic mucosa (pSTAT3 in colonic mucosa; 30 mg/kg): preventing T cell infiltration
pSTAT3 levels in colonic mucosa of oxazolone-treated mice vs vehicle (pSTAT3 in colonic mucosa; 30 mg/kg): significantly inhibited
IC50 [3]: 50.1 nM
clinical remission [4]: No patient achieved clinical remission
IC50 [5]: 200 nM
mouse colonic epithelial IL-6/pSTAT1 IC50 [6]: 0.020 µg/g
tolerability [7]: generally well tolerated
TEAE incidence, TD-1473 treatment arms overall [8]: 38.7%
laboratory parameters (haematological, renal, hepatic, creatinine phosphokinase, lipid) [8]: did not adversely affect
tolerability [8]: generally well tolerated
effects of oxazolone (DAI and subscores) [9]: did not significantly attenuate
oxazolone-induced elevated DAI, reduction in body weight and stool consistency, increase in stool blood content ([9]; oral 0.3–10 mg/kg BID): attenuated
IC50 [10]: 79.4 nM
colonic tissue concentration, geometric mean [95% CI] (20 mg QD, day 28): 4090 [2270–7380] pg/g
geometric mean colonic tissue concentration [average of sigmoid and rectum] (20 mg QD, day 28): 4090 pg/mL
patients with plasma trough concentration BLQ (20 mg, day 14): 4/9
geometric mean colonic tissue concentration [average of sigmoid and rectum] (80 mg QD, day 28): 65 300 pg/mL
geometric mean trough concentration as % of Cmax (80 mg, day 14): 3.57%
geometric mean colonic tissue concentration [average of sigmoid and rectum] (270 mg QD, day 28): 43 500 pg/mL
geometric mean trough concentration as % of Cmax (270 mg, day 14): 5.79%
numbers of splenic NK, B or T cells vs vehicle ([11]; oral 1, 10 and 100 mg/kg BID): did not affect
IC50 [12]: 79.4 nM
stronger potency for TYK2 compared with tofacitinib (human recombinant TYK2): approximately 40 fold
IC50 [13]: 31.6 nM

C[C@@H]1CCN(C(=O)CC#N)C[C@@H]1N(C)c1ncnc2[nH]ccc12 [tofacitinib, reference compound]
colonic level 24 h postdose (BLQ) ([2]; 10 mg/kg oral): < 0.00025 µM
concentration at 24 h [2]: < 0.25 nM
Cmax ([2]; colon, 10 mg/kg oral): 2570 ng/mL
Cmax ([2]; plasma, 10 mg/kg oral): 193 ng/mL
T cell infiltration into the colonic mucosa (pSTAT3 in colonic mucosa): preventing T cell infiltration
pSTAT3 levels in colonic mucosa of oxazolone-treated mice vs vehicle (pSTAT3 in colonic mucosa; 30 mg/kg): significantly inhibited
effects of oxazolone (DAI and subscores) [9]: did not significantly attenuate
oxazolone-induced elevated DAI, reduction in body weight and stool consistency, increase in stool blood content ([9]; oral 10 and 15 mg/kg TID): attenuated
splenic T and B cell numbers ([11]; oral 10, 15 and 30 mg/kg TID): did not affect
